Measured values as given in patent US10130590B2, “Methods of treating cancer with atovaquone-related compounds” (DANA-FARBER CANCER INSTITUTE, INC., priority 2013, dated 2018).

Columns and labels:
Assay type in all cases: cell-based
gp130 = assay: Flow cytometry of cell-surface gp130
Description: Annexin V/PI staining was performed using Annexin V:FITC Apoptosis Detection Kit I (BD Biosciences). Staining for cell cycle analysis was performed as previously described (267). Staining for cell-surface receptors was performed in 50 μl PBS+2% FBS with 2 μl antibody to IL6R (BioLegend #352803) or 5 μl antibody to gp130 (BD Biosciences #555757) for 20 minutes on ice in the dark. Cells were washed twice, then resuspended in 300 μl of the same buffer. Samples were analyzed on a BD FACSCanto II machine. Transfection and siRNA Cells were reverse-transfected using Lipofectamine RNAiMAX (Invitrogen); the culture medium was changed 24 hours later. Control siRNA (D-001210-02) and REDD1 siRNA (M-010855-01) were from Thermo Scientific Dharmacon.
Since atovaquone reduced gp130 expression at the cell surface, it was asked whether this effect was accompanied by reduced total gp130 in the cell. To address this question, a time course of atovaquone treatment was performed and total cellular gp130 was measured by Western blotting in U266 cells treated with atovaquone at 20 μM. […] Thus, it was surmised that atovaquone also rapidly downregulates cell-surface gp130, paralleling STAT3 inhibition and preceding the decrease in total gp130. […] Loss of cell-surface gp130 may be due to decreased entry into the plasma membrane or increased internalization. In either case, the decrease in total gp130 observed at longer time points is likely due to degradation of relatively unstable intracellular gp130.

eIF2α/ATF4 pathway = assay: Western blot / qRT-PCR of phospho-eIF2α/ATF4 pathway
Description: Western blotting was performed as previously described (Battle T E, Arbiser J, & Frank D A (2005) The natural product honokiol induces caspase dependent apoptosis in B-cell chronic lymphocytic leukemia (B-CLL) cells. Blood 106(2):690-697). Antibodies to phospho-MAPK (9101), total MAPK (9102), phospho-Y705 STAT3 (9131), phospho-S6 (2215), total S6 (2217), phospho-4E-BP1 (9451), total 4E-BP1 (9644), total RSK (9355), phospho-S6K (9234, 85 used at 1:5000), total S6K (2708), phospho-eIF2α (9721, used at 1:1000), total eIF2α (5324), ATF4 (11815, used at 1:1000), PDGFRβ (3169), IGF1Rβ (9750), EGFR (2232), and HER2 (2242) were from Cell Signaling Technology. Phospho-RSK antibody was from R&D (AF889). Antibodies to total STAT3 (sc-482) and gp130 (sc-656, used at 1:1000) were from Santa Cruz Biotechnology. Phospho-S727 STAT3 antibody was described previously (229). REDD1 antibody was from Proteintech (10638-1-AP, used at 1:1000). Antibody recognizing full-length and cleaved ATF6 was from Abcam (ab122897, used at 1:1000). Antibodies to tubulin (T5168) and beta actin (A5316) were from Sigma. All antibodies were used at 1:10000 dilution for western blot unless otherwise noted. For immunoprecipitations, cells were lysed in 500 μl lysis buffer (0.5% NP-40, 150 mM NaCl, 50 mM Tris pH 7.5, with protease and phosphatase inhibitors freshly added at 1:100 [Pierce, PI78443]) on ice for 15 minutes, then centrifuged for 10 minutes at 14,000 RPM and 4° C. The supernatant was transferred to a new tube and incubated with 10 μl JAK2 antibody (Santa Cruz sc-278) or a mix of two TYK2 antibodies, 10 μl of each (Santa Cruz sc-5271 and Cell Signaling Technology 9312). Immunoprecipitation was performed overnight at 4° C. with rotation. The next day, 75 μl of protein A/G beads (Santa Cruz sc-2003) were washed twice in lysis buffer, then incubated with immunoprecipitates overnight as before. The next day, the beads were spun down (1 min. at 7,500 RPM and 4° C.) and washed 3 times with 650 μl lysis buffer for 10 minutes at 4° C. with rotation, then boiled in 50 μl sample buffer+10% β-mercaptoethanol. For Western blot, 20 μl were loaded per lane. For detection of phospho-tyrosine, a mixture of two pan-phospho-tyrosine antibodies (Cell Signaling Technology 9411 and 9416, 1:1000 of each) was used. Antibody to phospho-Y1007/1008 JAK2 was from Cell Signaling 86 Technology (3771, used at 1:1000). Antibody to phospho-Y570 JAK2 was from Millipore (09-241, used at 1:1000). Luminometric Assays Luciferase reporter cell lines were described previously (186). Firefly luciferase values were normalized by concurrent cell viability. Cell viability was measured as ATP-dependent luminescence by Cell Titer Glo (Promega).
In asking how atovaquone induces REDD1, a possible role for ATF4, which regulates REDD1 expression was considered. ATF4 is regulated mainly at the level of translation and is induced upon phosphorylation of eIF2α. […] K562 and AML2 cells, which lack STAT3 activation, were treated with rapamycin for 72 hours. […] For these reasons, it was hypothesized that atovaquone induces eIF2α phosphorylation, with a resulting increase in ATF4 protein and signaling. U266, K562, and SKBR3 cells were treated with atovaquone (20, 20, 25 μM respectively). […] The phospho-eIF2α/ATF4 pathway represents one branch of the UPR, whose other branches consist of ATF6 cleavage and IRE1-mediated XBP1 splicing. […] Thus, atovaquone selectively activates the phospho-eIF2α/ATF4 branch of the UPR. […]

gp130 mRNA = gp130 mRNA expression (qRT-PCR); settings: MEF, MDA-MB, SKBR3, U266; 25 μM, 12 hours
Description: Total RNA was reverse transcribed using random hexamers and assayed by qRT-PCR as previously described (see, Grivennikov S I, Greten F R, & Karin M (2010) Immunity, inflammation, and cancer. Cell 140(6):883-899).
MEF, MDA-MB-468, and SKBR3 cells were treated with atovaquone (25 μM) for 6 or 12 hours, then analyzed by Western blot for expression of gp130 and various other receptors. […] In contrast, levels of other receptors—such as PDGFR-β, EGFR, HER2, and IGF1R-β—were not affected, again indicating a specific effect on gp130. […] In summary, atovaquone rapidly induces specific loss of cell-surface gp130, while total gp130 declines secondarily due to protein degradation.

[1] = U266, K562, SKBR3, 20, 20, 25 μM

## O=C1C(O)=C([C@H]2CC[C@H](c3ccc(Cl)cc3)CC2)C(=O)c2ccccc21 [atovaquone, trans-2-[4-(4-chlorophenyl)cyclohexyl]-3-hydroxy-1,4-naphthalenedione]
gp130; INA-6 20 μM 4 hours, HEL 25 μM 6 or 16 hours
  cell surface gp130 in INA-6 and HEL cells: induced downregulation of cell surface gp130
gp130; U266, 20 μM
  cell-surface expression of gp130, flow cytometric time course: rapidly inhibits the cell-surface expression of gp130
gp130; U266, 2.5 hours, atovaquone 20 μM, JAK inhibitor 1 1 μM, brefeldin A 3 μg/ml
  cell-surface expression of gp130: substantially downregulated the cell-surface expression of gp130
eIF2α/ATF4 pathway
  CHAC1 expression: consistently upregulated
  CHOP expression: strongly upregulates CHOP
eIF2α/ATF4 pathway; U266, 15 μM, 2 hours
  expression of ATF4 mRNA: unchanged
eIF2α/ATF4 pathway; [1]
  ATF4 protein levels: increased ATF4 protein levels
  eIF2α phosphorylation: induced eIF2α phosphorylation
gp130 mRNA
  gp130 mRNA expression: not significantly changed
